Assay results reported in ChEMBL document CHEMBL4765432, “Design and synthesis of novel Flavone-based histone deacetylase inhibitors antagonizing activation of STAT3 in breast cancer” (Eur J Med Chem, 2020).
Calls of active or inactive are those of the source. The calls are words filed in the database; no cut-off is given here.

How the values were obtained:
[1] = Inhibition of HDAC in human HeLa cell extracts assessed as inhibition of substrate deacetylation using Boc-Lys (q-Ac)-AMC as substrate incubated for 10 mins followed by substrate addition and measured after 30 mins by fluorescence based assay; type: tissue-based
MDA-MB-231 [2] = assay: Induction of apoptosis in human MDA-MB-231 cells assessed as necrotic cells at 10 uM incubated for 72 hrs by annexinV-FITC and PI staining based flow cytometry analysis (reference value: 0.330 %); type: functional
4T1 [3] = assay: Induction of apoptosis in mouse 4T1 cells assessed as late apoptotic cells at 10 uM incubated for 72 hrs by annexinV-FITC and PI staining based flow cytometry analysis (reference value: 2.24 %); type: functional
4T1 [4] = assay: Induction of apoptosis in mouse 4T1 cells assessed as necrotic cells at 10 uM incubated for 72 hrs by annexinV-FITC and PI staining based flow cytometry analysis (reference value: 5.00 %); type: functional
4T1 [5] = assay: Induction of apoptosis in mouse 4T1 cells assessed as early apoptotic cells at 10 uM incubated for 72 hrs by annexinV-FITC and PI staining based flow cytometry analysis (reference value: 1.65 %); type: functional
MDA-MB-231 [6] = assay: Induction of apoptosis in human MDA-MB-231 cells assessed as late apoptotic cells at 10 uM incubated for 72 hrs by annexinV-FITC and PI staining based flow cytometry analysis (reference value: 3.79 %); type: functional
4T1 [7] = assay: Induction of apoptosis in mouse 4T1 cells assessed as viable cells at 10 uM incubated for 72 hrs by annexinV-FITC and PI staining based flow cytometry analysis (reference value: 91.1 %); type: functional; settings: read-out: Activity
MDA-MB-231 [8] = assay: Induction of apoptosis in human MDA-MB-231 cells assessed as early apoptotic cells at 10 uM incubated for 72 hrs by annexinV-FITC and PI staining based flow cytometry analysis (reference value: 5.57 %); type: functional
MDA-MB-231 [9] = assay: Induction of apoptosis in human MDA-MB-231 cells assessed as viable cells at 10 uM incubated for 72 hrs by annexinV-FITC and PI staining based flow cytometry analysis (reference value: 90.3 %); type: functional; settings: read-out: Activity
[10] = molecular target: Signal transducer and activator of transcription 3 (Homo sapiens) (UniProt P40763); assay: Inhibition of STAT3 in human MDA-MB-231 cells assessed as reduction in STAT-3 phosphorylation incubated for 8 hrs by Western blot analysis; type: cell-based; settings: dose 2.5-20 µM
[11] = Toxicity in C57BL/6 mouse assessed death of organism at 300 mg/kg, ip observed for 24 hrs; type: organism-based; settings: in vivo
[12] = Toxicity in C57BL/6 mouse assessed death of organism at 50 mg/kg, po observed for 20 days; type: organism-based; settings: in vivo, 480 h, time 20 day
T47D = assay: Cytotoxicity against human T47D cells assessed as reduction in cell viability incubated for 48 hrs by MTT assay; type: functional, cell-based
MDA-MB-231 [13] = assay: Induction of apoptosis in human MDA-MB-231 cells assessed as early apoptotic cells at 5 uM incubated for 72 hrs by annexinV-FITC and PI staining based flow cytometry analysis (reference value: 5.57 %); type: functional
MDA-MB-231 [14] = assay: Induction of apoptosis in human MDA-MB-231 cells assessed as necrotic cells at 5 uM incubated for 72 hrs by annexinV-FITC and PI staining based flow cytometry analysis (reference value: 0.330 %); type: functional
4T1 [15] = assay: Induction of cell cycle arrest in mouse 4T1 cells assessed as S phase accumulation at 2 uM incubated for 24 hrs by PI staining based flow cytometry analysis (reference value: 19.43 %); type: functional
MDA-MB-231 [16] = assay: Induction of apoptosis in human MDA-MB-231 cells xenografted in BALB/c mouse assessed as increase in caspase-3 cleavage by immunohistochemistry method; type: functional, cell-based
MDA-MB-231 [17] = assay: Induction of cell cycle arrest in human MDA-MB-231 cells assessed as S phase accumulation at 2 uM incubated for 24 hrs by PI staining based flow cytometry analysis (reference value: 43.82 %); type: functional
4T1 [18] = assay: Induction of apoptosis in mouse 4T1 cells assessed as viable cells at 5 uM incubated for 72 hrs by annexinV-FITC and PI staining based flow cytometry analysis (reference value: 91.1 %); type: functional; settings: read-out: Activity
4T1 [19] = assay: Induction of cell cycle arrest in mouse 4T1 cells assessed as G0/G1 phase accumulation at 2 uM incubated for 24 hrs by PI staining based flow cytometry analysis (reference value: 42.06 %); type: functional
MDA-MB-231 [20] = assay: Induction of apoptosis in human MDA-MB-231 cells assessed as late apoptotic cells at 5 uM incubated for 72 hrs by annexinV-FITC and PI staining based flow cytometry analysis (reference value: 3.79 %); type: functional
[21] = Genotoxicity in Salmonella typhimurium TA98 by Ames test; type: toxicity; settings: salmonella enterica subsp. enterica serovar typhimurium
HepG2 = assay: Cytotoxicity against human HepG2 cells assessed as reduction in cell viability incubated for 48 hrs by MTT assay; type: functional, cell-based; settings: HepG2, 48 h
4T1 [22] = assay: Induction of apoptosis in mouse 4T1 cells implanted in BALB/c mouse assessed as increase in caspase-3 cleavage by immunohistochemistry method; type: functional, cell-based
MDA-MB-231 [23] = assay: Induction of apoptosis in human MDA-MB-231 cells assessed as viable cells at 5 uM incubated for 72 hrs by annexinV-FITC and PI staining based flow cytometry analysis (reference value: 90.3 %); type: functional; settings: read-out: Activity
[24] = Genotoxicity in Salmonella typhimurium WP2 uvrA (pKM 101) by Ames test; type: toxicity; settings: salmonella enterica subsp. enterica serovar typhimurium
4T1 [25] = assay: Induction of cell cycle arrest in mouse 4T1 cells assessed as G2/M phase accumulation at 2 uM incubated for 24 hrs by PI staining based flow cytometry analysis (reference value: 38.51 %); type: functional
4T1 [26] = assay: Induction of apoptosis in mouse 4T1 cells assessed as late apoptotic cells at 5 uM incubated for 72 hrs by annexinV-FITC and PI staining based flow cytometry analysis (reference value: 2.24 %); type: functional
[27] = molecular target: Signal transducer and activator of transcription 3 (Homo sapiens) (UniProt P40763); assay: Inhibition of STAT3 in human MDA-MB-231 cells assessed as reduction in STAT-3 phosphorylation at 2.5 to 40 uM incubated for 8 hrs by Western blot analysis; type: cell-based; settings: dose 2.5-40 µM
[28] = Genotoxicity in Salmonella typhimurium TA1537 by Ames test; type: toxicity; settings: salmonella enterica subsp. enterica serovar typhimurium
MDA-MB-231 [29] = assay: Induction of cell cycle arrest in human MDA-MB-231 cells assessed as G2/M phase accumulation at 2 uM incubated for 24 hrs PI staining based by flow cytometry analysis (reference value: 27.08 %); type: functional
[30] = Genotoxicity in Salmonella typhimurium TA97a by Ames test; type: toxicity; settings: salmonella enterica subsp. enterica serovar typhimurium
[31] = Genotoxicity in Salmonella typhimurium TA1535 by Ames test; type: toxicity; settings: salmonella enterica subsp. enterica serovar typhimurium
4T1 [32] = assay: Induction of apoptosis in mouse 4T1 cells assessed as early apoptotic cells at 5 uM incubated for 72 hrs by annexinV-FITC and PI staining based flow cytometry analysis (reference value: 1.65 %); type: functional
[33] = Genotoxicity in Salmonella typhimurium TA100 by Ames test; type: toxicity; settings: salmonella enterica subsp. enterica serovar typhimurium
MDA-MB-231 [34] = assay: Induction of cell cycle arrest in human MDA-MB-231 cells assessed as G0/G1 phase accumulation at 2 uM incubated for 24 hrs by PI staining based flow cytometry analysis (reference value: 29.10 %); type: functional
4T1 [35] = assay: Induction of apoptosis in mouse 4T1 cells assessed as necrotic cells at 5 uM incubated for 72 hrs by annexinV-FITC and PI staining based flow cytometry analysis (reference value: 5.00 %); type: functional

Sequence of Signal transducer and activator of transcription 3 (Homo sapiens) (P40763 whole entry): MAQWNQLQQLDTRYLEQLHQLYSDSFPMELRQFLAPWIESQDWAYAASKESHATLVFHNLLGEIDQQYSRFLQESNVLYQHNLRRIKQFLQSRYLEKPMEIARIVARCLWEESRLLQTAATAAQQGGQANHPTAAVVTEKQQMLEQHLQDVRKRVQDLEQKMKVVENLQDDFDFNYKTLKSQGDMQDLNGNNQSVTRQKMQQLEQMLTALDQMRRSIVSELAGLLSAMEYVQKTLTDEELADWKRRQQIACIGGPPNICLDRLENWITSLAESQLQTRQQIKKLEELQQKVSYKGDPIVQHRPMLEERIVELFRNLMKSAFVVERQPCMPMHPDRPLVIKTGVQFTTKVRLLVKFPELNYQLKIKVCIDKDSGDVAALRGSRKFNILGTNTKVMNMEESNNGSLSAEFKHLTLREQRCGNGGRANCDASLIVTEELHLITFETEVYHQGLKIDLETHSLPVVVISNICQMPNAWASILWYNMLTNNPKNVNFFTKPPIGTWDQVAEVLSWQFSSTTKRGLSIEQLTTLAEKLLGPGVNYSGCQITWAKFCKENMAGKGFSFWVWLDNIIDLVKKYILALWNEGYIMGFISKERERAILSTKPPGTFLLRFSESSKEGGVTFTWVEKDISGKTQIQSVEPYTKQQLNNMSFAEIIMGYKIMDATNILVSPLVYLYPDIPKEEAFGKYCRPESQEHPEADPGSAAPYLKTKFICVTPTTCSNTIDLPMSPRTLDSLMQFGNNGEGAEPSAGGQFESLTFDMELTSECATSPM

## O=C(CCCCCOc1cc(O)c2c(=O)cc(-c3ccc(OCCN4CCCCC4)cc3)oc2c1)NO
[1]
  IC50: 0.133 µM

## COc1ccc(-c2coc3cc(OCCCCCC(=O)NO)cc(O)c3c2=O)cc1
[1]
  IC50: > 10 µM

## COc1ccc(-c2cc(=O)c3c(O)cc(OCCCCCC(=O)NO)cc3o2)cc1
[1]
  IC50: 4530 µM

## O=C(CCCCOc1cc(O)c2c(=O)cc(-c3ccccc3)oc2c1)NO
[1]
  IC50: 3.33 µM

## O=C(COc1cc(O)c2c(=O)cc(-c3ccccc3)oc2c1)NO
[1]
  IC50: > 10 µM

## O=c1cc(-c2ccc(O)cc2)oc2cc(O)cc(O)c12 [APIGENIN]
MDA-MB-231 [2]
  Activity: 0.02%
4T1 [3]
  Activity: 3.22%
4T1 [4]
  Activity: 4.45%
4T1 [5]
  Activity: 3.22%
MDA-MB-231 [6]
  Activity: 1.59%
4T1 [7]
  viability at 10 µM: 89.1%
[1]
  IC50: > 10 µM
MDA-MB-231 [8]
  Activity: 8.28%
MDA-MB-231 [9]
  viability at 10 µM: 90.1%

## O=C(CCCCCOc1cc(O)c2c(=O)cc(-c3ccc(OCCN4CCCC4)cc3)oc2c1)NO
[1]
  IC50: > 10 µM

## CN(C)CCCOc1ccc(-c2cc(=O)c3c(O)cc(OCCCCCCCC(=O)NO)cc3o2)cc1
[1]
  IC50: 0.053 µM

## CN(C)CCCOc1ccc(-c2cc(=O)c3c(O)cc(OCCCCCC(=O)NO)cc3o2)cc1.Cl
[10]
  inhibition: Dose-dependent effect
[1]
  IC50: 0.065 µM
[11]
  Activity: Toxic
[12]
  Activity: Toxic

## O=C(CCCOc1cc(O)c2c(=O)cc(-c3ccccc3)oc2c1)NO
[1]
  IC50: > 10 µM

## O=C(CCCCCCCOc1cc(O)c2c(=O)cc(-c3ccc(O)cc3)oc2c1)NO
[1]
  IC50: 0.615 µM

## COc1ccc(-c2coc3cc(OCCCCCC(=O)NO)ccc3c2=O)cc1
[1]
  IC50: 0.71 µM

## CN1CCN(CCOc2ccc(-c3cc(=O)c4c(O)cc(OCCCCCC(=O)NO)cc4o3)cc2)CC1
[1]
  IC50: 0.225 µM

## O=C(CCCCCCOc1cc(O)c2c(=O)cc(-c3ccccc3)oc2c1)NO
[1]
  IC50: 0.088 µM

## COc1ccc(-c2coc3cc(OCCCCCCCC(=O)NO)ccc3c2=O)cc1
[1]
  IC50: > 10 µM

## CN(C)CCCOc1ccc(-c2cc(=O)c3c(O)cc(OCCCCCCC(=O)NO)cc3o2)cc1
[1]
  IC50: 0.025 µM

## O=C(CCCCCCC(=O)Nc1ccccc1)NO [VORINOSTAT]
T47D
  IC50: 2.24 µM
MDA-MB-231 [13]
  Activity: 20.1%
MDA-MB-231 [14]
  Activity: 0.356%
4T1 [15]
  Activity: 23.63%
MDA-MB-231 [16]
  Activity: Active
MDA-MB-231 [17]
  Activity: 8.32%
4T1 [18]
  viability at 5 µM: 35.6%
4T1 [19]
  Activity: 53.69%
MDA-MB-231 [20]
  Activity: 25.8%
[21]
  Activity: Non-Toxic
HepG2
  IC50: 2.27 µM
4T1 [22]
  Activity: Active
MDA-MB-231 [23]
  viability at 5 µM: 53.8%
[24]
  Activity: Non-Toxic
4T1 [25]
  Activity: 22.68%
4T1 [26]
  Activity: 13.4%
[27]
  inhibition: inactive
[28]
  Activity: Non-Toxic
MDA-MB-231 [29]
  Activity: 18.69%
[30]
  Activity: Toxic
[31]
  Activity: Non-Toxic
4T1 [32]
  Activity: 48.9%
[33]
  Activity: Toxic
MDA-MB-231 [34]
  Activity: 72.99%
4T1 [35]
  Activity: 2.08%

## O=C(CCCCCOc1cc(O)c2c(=O)cc(-c3ccc(O)cc3)oc2c1)NO
[1]
  IC50: 0.297 µM

## O=C(CCCCCCCOc1cc(O)c2c(=O)cc(-c3ccccc3)oc2c1)NO
[1]
  IC50: 0.402 µM

## CN(C)CCOc1ccc(-c2cc(=O)c3c(O)cc(OCCCCCCCC(=O)NO)cc3o2)cc1
[1]
  IC50: 1.68 µM

## COc1ccc(-c2coc3cc(OCCCCCCC(=O)NO)cc(O)c3c2=O)cc1
[1]
  IC50: > 10 µM

## COc1ccc(-c2coc3cc(OCCCCCCC(=O)NO)ccc3c2=O)cc1
[1]
  IC50: > 10 µM

## O=C(CCCCCCOc1cc(O)c2c(=O)cc(-c3ccc(O)cc3)oc2c1)NO
[1]
  IC50: 0.93 µM

## COC(=O)CCCCCOc1cc(O)c2c(=O)cc(-c3ccc(OCCN(C)C)cc3)oc2c1
[27]
  inhibition: Active

## COc1ccc(-c2cc(=O)c3c(O)cc(OCCCCCCCC(=O)NO)cc3o2)cc1
[1]
  IC50: > 10 µM

## COc1ccc(-c2cc(=O)c3c(O)cc(OCCCCCCC(=O)NO)cc3o2)cc1
[1]
  IC50: 5.25 µM

## O=C(CCCCCOc1cc(O)c2c(=O)cc(-c3ccc(OCCN4CCOCC4)cc3)oc2c1)NO
[1]
  IC50: 0.59 µM

## CN(C)CCOc1ccc(-c2cc(=O)c3c(O)cc(OCCCCCCC(=O)NO)cc3o2)cc1
[1]
  IC50: 0.732 µM

## O=C(CCCCCOc1cc(O)c2c(=O)cc(-c3ccccc3)oc2c1)NO
[1]
  IC50: 0.053 µM

## COc1ccc(-c2coc3cc(OCCCCCCCC(=O)NO)cc(O)c3c2=O)cc1
[1]
  IC50: > 10 µM
